Assay results: patent US10828310B2, “Reducing the risk of cardiovascular events” (Bayer Pharma Aktiengesellschaft, priority 2018, dated 2020)
“Also recorded” adds a separate entry of the source.

Key:
[1] = test system: patients with stable atherosclerotic vascular disease (coronary artery disease, peripheral arterial disease, or both); test: COMPASS trial, net-clinical-benefit outcome; assay type: in vivo, human
Text: “Safe” for the methods disclosed herein may also be measured by the net clinical benefit of the inventive method or product compared to administration of aspirin alone. The net clinical benefit outcome consists of cardiovascular death, myocardial infarction, stroke, and fatal or critical organ bleeding.
Because the products and methods of the present invention involve medications that cause the desired reduction in the risk of myocardial infarction, stroke, or cardiovascular death yet also cause undesired bleeding, the “net clinical benefit” of the therapy is important to consider. The “net clinical benefit” composite is a positive benefit risk ratio that was derived using severe bleeding events (intracranial bleeding, fatal bleeding, and critical organ bleeding) as a component of the composite. In clinical studies, the risk of the composite net clinical benefit outcome of cardiovascular death, stroke, myocardial infarction, fatal bleeding or symptomatic bleeding into a critical organ was lower with twice-daily 2.5 mg rivaroxaban combined with once daily 100 mg aspirin (4.7%) than with aspirin alone (100 mg once daily) (5.9%), hazard ratio 0.80.
(§1) Study aspirin was enteric-coated.
(§2) Three secondary efficacy outcomes were specified: the composite of ischemic stroke, myocardial infarction, acute limb ischemia, or death from coronary heart disease; the composite of ischemic stroke, myocardial infarction, acute limb ischemia, or cardiovascular death; and death from any cause. Tertiary efficacy outcomes included individual components of the primary and secondary outcomes, as well as hospitalization for cardiovascular causes, revascularization, limb amputation, stent thrombosis, angina, heart failure, venous thromboembolism, resuscitated cardiac arrest, and a new diagnosis of cancer. The net-clinical-benefit outcome was the composite of cardiovascular death, stroke, myocardial infarction, fatal bleeding, or symptomatic bleeding into a critical organ.
(§3) All reported P values are two-sided.

[2] = test system: patients with stable atherosclerotic vascular disease (coronary artery disease, peripheral arterial disease, or both); test: COMPASS trial, efficacy outcomes; assay type: in vivo, human; settings: for participants reported to have atrial fibrillation who had a stroke: 26 of the 392 participants with atrial fibrillation; for primary outcome event of cardiovascular death, stroke, or myocardial infarction, number of patients / primary outcome event of cardiovascular death, stroke, or myocardial infarction, percentage of patients: rivaroxaban alone 5 mg twice daily, mean follow-up 23 months; for primary outcome / major adverse cardiovascular events compared with aspirin alone (in words): compared with aspirin alone 100 mg once daily
Method: Patients were eligible if they provided written informed consent and met the criteria for coronary artery disease, peripheral arterial disease, or both. Patients with coronary artery disease who were younger than 65 years of age were also required to have documentation of atherosclerosis involving at least two vascular beds or to have at least two additional risk factors (current smoking, diabetes mellitus, an estimated glomerular filtration rate (“GFR”)<60 ml per minute, heart failure, or nonlacunar ischemic stroke≥1 month earlier). Exclusion criteria were a high bleeding risk; a recent stroke or previous hemorrhagic or lacunar stroke; severe heart failure; advanced stable kidney disease (estimated GFR<15 ml per minute); the use of dual antiplatelet therapy, anticoagulation, or other antithrombotic therapy; and noncardiovascular conditions deemed by the investigator to be associated with a poor prognosis.
Eligible participants (except those who underwent randomization 4 to 14 days after coronary-artery bypass graft (“CABG”) surgery) entered a run-in phase during which they received a rivaroxaban-matched placebo twice daily and aspirin at a dose of 100 mg once daily. The purpose of the run-in phase was to identify participants who were unwilling or unable to adhere to the trial regimen, who had adverse events, or who were otherwise not suitable for randomization. Patients who underwent randomization 4 to 14 days after CABG surgery were not required to participate in the run-in phase because thrombotic graft occlusion is most common during the first few weeks after surgery and we sought to enroll such patients promptly.
as §1, §2
All the outcome events in all randomly assigned patients that occurred between randomization and the date of stopping the trial were included in the analysis, according to the intention-to-treat principle. An early stop of both antithrombotic treatment groups for efficacy had not been anticipated, and therefore a strategy for formal testing of secondary outcomes at the interim analysis was not prespecified.
as §3

[3] = test system: patients with stable cardiovascular disease; settings: in vivo; cited from earlier work
[4] = test system: patients with a recent acute coronary syndrome; settings: background of single or dual antiplatelet therapy, cited from earlier work
[5] = test system: patients with stable atherosclerotic vascular disease (coronary artery disease, peripheral arterial disease, or both); settings: human, in vivo, 23 months
Text: Adverse events that impact whether the inventive combinations and combination therapy are safe are adverse bleeding events that include, for example, major bleeding, minor bleeding, intracranial bleeding, and symptomatic bleeding into a critical organ. “Major bleeding” as used herein is a modification of the International Society on Thrombosis and Haemostasis (ISTH) criteria for major bleeding and includes fatal bleeding, symptomatic bleeding into a critical organ, bleeding into a surgical site requiring reoperation, and bleeding that led to hospitalization (including presentation to an acute care facility without an overnight stay). Unlike the ISTH criteria, all bleeding that led to presentation to an acute care facility or hospitalization is considered as major.
The COMPASS trial, conducted at 602 centers in 33 countries, is a double-blind, double-dummy, randomized trial using a 3-by-2 partial factorial design and involving patients with a history of stable atherosclerotic vascular disease. […]

[6] = test system: patients with stable peripheral arterial disease; settings: in vivo; cited from earlier work
[7] = test system: patients with stable cardiovascular disease receiving single or dual antiplatelet therapy; settings: in vivo; cited from earlier work
[8] = rivaroxaban 2.5 mg twice daily + aspirin 100 mg once daily, aspirin alone 100 mg once daily

CC(=O)Oc1ccccc1C(=O)O [aspirin alone, acetylsalicylic acid]
composite net-clinical-benefit outcome of cardiovascular death, stroke, myocardial infarction, fatal bleeding, or symptomatic bleeding into a critical organ, number of patients [1, 8]: 534 patients | composite net-clinical-benefit outcome of cardiovascular death, stroke, myocardial infarction, fatal bleeding, or symptomatic bleeding into a critical organ, percentage of patients [1, 8]: 5.9% | participants reported to have atrial fibrillation who had a stroke [2]: 11 participants | deaths (death from any cause), number [2, 8]: 378 deaths | deaths (death from any cause), percentage [2, 8]: 4.1% | secondary composite outcome of ischemic stroke, myocardial infarction, acute limb ischemia, or death from coronary heart disease, number of patients [2, 8]: 450 patients | secondary composite outcome of ischemic stroke, myocardial infarction, acute limb ischemia, or death from coronary heart disease, percentage of patients [2, 8]: 4.9% | secondary outcome of ischemic stroke, myocardial infarction, acute limb ischemia, or cardiovascular death, number of patients [2, 8]: 516 patients | secondary outcome of ischemic stroke, myocardial infarction, acute limb ischemia, or cardiovascular death, percentage of patients [2, 8]: 5.7% | primary outcome event of cardiovascular death, stroke, or myocardial infarction, number of patients [2, 8]: 496 patients | primary outcome event of cardiovascular death, stroke, or myocardial infarction, percentage of patients [2, 8]: 5.4%

COC(=O)[C@H](c1ccccc1Cl)N1CCc2sccc2C1 [clopidogrel]
risk of cardiovascular death or death from any cause vs aspirin [3]: no significant difference | risk of major adverse cardiovascular events vs aspirin [3]: lower risk

O=C(NC[C@H]1CN(c2ccc(N3CCOCC3=O)cc2)C(=O)O1)c1ccc(Cl)s1 [rivaroxaban alone, 5-chloro-N-({(5S)-2-oxo-3-[4-(3-oxo-4-morpholinyl)phenyl]-1,3-oxazolidin-5-yl}methyl)-2-thiophenecarboxamide]
rate of major adverse cardiovascular events vs placebo ([4]; 2.5 mg twice daily or 5 mg twice daily): lower rate | mortality vs placebo ([4]; 2.5 mg twice daily): lower mortality | hazard ratio, major bleeding events (modified ISTH criteria) [5]: 1.51 | net-clinical-benefit outcome compared with aspirin alone (in words) ([1]; rivaroxaban alone 5 mg twice daily vs aspirin alone): not significantly lower; also recorded: did not show a significant difference | participants reported to have atrial fibrillation who had a stroke [2]: 8 participants | primary outcome / major adverse cardiovascular events compared with aspirin alone (in words) [2]: did not show a significant difference | primary outcome / major adverse cardiovascular events compared with aspirin alone (in words) ([2]; listed as Rivaroxaban): not associated with a significant reduction | primary outcome / major adverse cardiovascular events compared with aspirin alone (in words) ([2]; listed as Rivaroxaban alone): did not result in a significantly lower risk | hazard ratio for the primary outcome ([2]; compared with aspirin alone, stratified Cox model): 0.90 | primary outcome event of cardiovascular death, stroke, or myocardial infarction, number of patients [2, 8]: 448 patients | primary outcome event of cardiovascular death, stroke, or myocardial infarction, percentage of patients [2, 8]: 4.9%

CCCSc1nc(N[C@@H]2C[C@H]2c2ccc(F)c(F)c2)c2nnn([C@@H]3C[C@H](OCCO)[C@@H](O)[C@H]3O)c2n1 [ticagrelor]
rate of major adverse cardiovascular events vs clopidogrel [6]: did not result in a significantly lower rate

CCOC(=O)N[C@@H]1CC[C@@H]2[C@@H](C1)C[C@H]1C(=O)O[C@H](C)[C@H]1[C@H]2/C=C/c1ccc(-c2cccc(F)c2)cn1 [vorapaxar]
mortality vs placebo [7]: no significant between-group difference | rate of major adverse cardiovascular events vs placebo [7]: lower rate | rate of moderate or severe bleeding vs placebo [7]: higher rate
